Reference: patent US10849983B2, “Development of soluble albuminated curcumin for application in cancer therapy” (Sree Chitra Tirunal Institute for Medical Sciences and …, priority 2013, dated 2020)

Legend:
lung cancer (A549) cells = assay: A549 lung cancer cells, phase contrast microscopy, cell cycle analysis and apoptosis by flow cytometry; format: cell-based, human; details: 48h, Flowjo
Method: (§1) To study the effect of the drug conjugate on cancer cells, Lung (A549), Leukemia (K562), & Prostate (PC-3) cell lines were procured from NCCS, Pune. On receipt, the cell lines were sub cultured and sufficient numbers of vials were stored in […]. deep freezer. To study the effect of curcumin on angiogenesis, primary endothelial cells isolated from sheep was used. The effects on primary human fibroblast cells were also studied. Each cell line was maintained in their respective recommended media. A549, PC3 and fibroblast cells were maintained in DMEM media with 10% FBS. K562 cells were maintained in IMDM media supplemented with 10% FBS and endothelial cells in MCDB media with 10% FBS, L-ascorbic acid, VEGF and L-Glutamine.
(§2) The effect of curcumin was analyzed on cell apoptosis and cycle arrest. Different concentrations of the alb-cur conjugate were added into the cultures. The concentrations employed were 250 μM, 500 μM, and 1000 μM which were achieved by adding stock prepared by dissolving lyophilized curcumin-albumin conjugate.
(§3) The efficacy of the loaded drug was analyzed using solid tumor cell lines of prostate cancer (PC-3) [FIGS. 4 & 5] lung cancer (A549) [FIGS. 6 & 7B] and suspension cell line of leukemia (K562) [FIGS. 7A & 8]. The toxicity of the conjugated albumin-curcumin complex was assed by Live/Dead assay using Annexin V in primary fibroblasts. […]

[1] = system: prostate cancer (PC-3) cells; assay: PC-3 cells, phase contrast microscopy and Live/Dead (Annexin V) assay; format: cell-based, human; details: 24h, phase contrast microscopy, curcumin in DMSO
Method: as §1, §2, §3

Row | SMILES | cell cycle distribution of A549 cells (positive control) (lung cancer (A549) cells) | morphology of PC-3 cells [1]
1 | O=c1[nH]cc(F)c(=O)[nH]1 [Example 5-FU] | slight increase in the population of cells in the S phase | –
2 | COc1cc(/C=C/C(=O)CC(=O)/C=C/c2ccc(O)c(OC)c2)ccc1O [cur/DMSO, curcumin] | – | normal morphological features
